Our source for the Emax and EC50 values is patent US20240217983A1, “GPR119 AGONISTS” (Kallyope, Inc., priority 2021, published 2024).

This experiment has as its target T1, human GPR119 (hGPR119) (Homo sapiens, UniProt Q8TDV5).
T1 construct: expressed in transfected cells
T1 sequence (Q8TDV5 1-335): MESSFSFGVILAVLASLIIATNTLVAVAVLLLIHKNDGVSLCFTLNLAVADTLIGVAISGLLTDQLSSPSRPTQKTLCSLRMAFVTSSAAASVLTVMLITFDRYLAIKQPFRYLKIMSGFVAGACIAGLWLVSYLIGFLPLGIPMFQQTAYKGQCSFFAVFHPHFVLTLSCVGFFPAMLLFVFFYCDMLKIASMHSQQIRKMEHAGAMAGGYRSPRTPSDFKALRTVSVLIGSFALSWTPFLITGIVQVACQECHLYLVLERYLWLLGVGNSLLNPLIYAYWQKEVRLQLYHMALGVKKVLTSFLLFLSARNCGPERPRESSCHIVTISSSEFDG
Briefly: cAMP accumulation assay (Cisbio cAMP Gs dynamic HTRF kit) in CHO-K1 cells stably expressing human GPR119. The class given is cell-based. The note with it: 4-parameter fit; for Emax: 1 h, % activity normalized to Max and Min controls; for EC50: 60 minutes at 37° C. Here is the method:
CHO-K1 cells stably expressing human GPR119 (hGPR119) were prepared by transfection of a GPR119-carrying plasmid using Lipofectamine 2000 (following manufacturer instructions). A stable cell line was established using the limiting dilution method with geneticine selection. Assay-ready frozen (ARF) cells were prepared and used throughout the study.
The assay was performed in a 384-well plate format using the cAMP Gs dynamic assay kit from Cisbio. ARF cells expressing hGPR119 were thawed, washed and then resuspended in cAMP stimulation buffer at a cell density of 1.1×10^6 cells/mL. Cells were plated at a density of ˜10,000 cells/well (9 μL/well). Dose response curves for the tested compounds were prepared in a cAMP stimulation buffer, containing 0.1% Tween 80 at 4 fold the final concentration. The compounds were then transferred to the cell plates using BRAVO (3 μL/well) and the plates were incubated for 60 minutes at 37° C./5% CO2. Detection buffer (10 μL, prepared as described in the cAMP Gs dynamic kit) were added to each well, and the plates were incubated at ambient temperature for 1 hr.
RT-FRET was measured using a ClarioSTAR plate reader, calculating the ratio between emissions at 665 nm and 620 nm (HTRF ratio). The HTRF ratio for positive (Max) and negative (Min) controls were used to normalize HTRF data and generate values for % activity. EC50 and Max activity values were determined using a standard 4-parameter fit.
Background: Cyclic AMP is a second messenger, typically raised through Gs and lowered through Gi signalling.

Each structure is given as a SMILES string. Bounds are passed on as bounds.

By Emax is commonly meant the greatest response seen or fitted, relative to the assay's reference. The EC50 is the concentration at which the effect is half-maximal. Take `O=C(Cc1ccc(OCCCC2CCN(c3ncc(Cl)cn3)CC2)cc1F)N1C[C@@H]2CCN(C[C@H](O)[C@@H](O)[C@H](O)[C@H](O)CO)[C@@H]2C1` [Example 35, 2-(4-(3-(1-(5-chloropyrimidin-2-yl)piperidin-4-yl)propoxy)-2-fluorophenyl)-1-((3aS,6aS)-1-((2S,3R,4R,5R)-2,3,4,5,6-pentahydroxyhexyl)hexahydropyrrolo[3,4-b]pyrrol-5(1H)-yl)ethan-1-one]: the Emax is 100 to 130% and the EC50 was ≤ 100 nM.

In turn, `O=C(Cc1ccc(OCCCC2CCN(c3ncc(Cl)cn3)CC2)cc1F)N1C[C@H]2CN(C[C@H](O)[C@H](O)[C@H](O)CO)[C@H]2C1` [Example 36, 2-(4-(3-(1-(5-chloropyrimidin-2-yl)piperidin-4-yl)propoxy)-2-fluorophenyl)-1-((1R,5R)-6-((2S,3S,4R)-2,3,4,5-tetrahydroxypentyl)-3,6-diazabicyclo[3.2.0]heptan-3-yl)ethan-1-one] came in with an Emax of 100 to 130% and an EC50 of 100 to 1000 nM.

`O=C(Cc1ccc(OCCCC2CCN(c3ncc(Cl)cn3)CC2)cc1F)N1C[C@H]2CN(C[C@H](O)[C@@H](O)[C@H](O)[C@H](O)CO)[C@H]2C1` [Example 37, 2-(4-(3-(1-(5-chloropyrimidin-2-yl)piperidin-4-yl)propoxy)-2-fluorophenyl)-1-((1R,5R)-6-((2S,3R,4R,5R)-2,3,4,5,6-pentahydroxyhexyl)-3,6-diazabicyclo[3.2.0]heptan-3-yl)ethan-1-one] registered an Emax of 100 to 130% and an EC50 of 100 to 1000 nM.

In the case of `O=C(Cc1ccc(OCCCC2CCN(c3ncc(Cl)cn3)CC2)cc1F)N1C[C@@H]2CN(C[C@H](O)[C@H](O)[C@H](O)CO)C[C@@H]21` [Example 38, 2-(4-(3-(1-(5-chloropyrimidin-2-yl)piperidin-4-yl)propoxy)-2-fluorophenyl)-1-((1S,5R)-3-((2S,3S,4R)-2,3,4,5-tetrahydroxypentyl)-3,6-diazabicyclo[3.2.0]heptan-6-yl)ethan-1-one], the Emax fell in the range of 100 to 130% and the EC50 was ≤ 100 nM.

`O=C(Cc1ccc(OCCCC2CCN(c3ncc(Cl)cn3)CC2)cc1F)N1C[C@@H]2CN(C[C@H](O)[C@@H](O)[C@H](O)[C@H](O)CO)C[C@@H]21` [Example 39, 2-(4-(3-(1-(5-chloropyrimidin-2-yl)piperidin-4-yl)propoxy)-2-fluorophenyl)-1-((1S,5R)-3-((2S,3R,4R,5R)-2,3,4,5,6-pentahydroxyhexyl)-3,6-diazabicyclo[3.2.0]heptan-6-yl)ethan-1-one]: the Emax is 100 to 130% and the EC50 was ≤ 100 nM.

For `O=C(Cc1ccc(OCCCC2CCN(c3ncc(Cl)cn3)CC2)cc1F)N1CCC12CN(C[C@H](O)[C@H](O)[C@H](O)CO)C2` [Example 40, 2-(4-(3-(1-(5-chloropyrimidin-2-yl)piperidin-4-yl)propoxy)-2-fluorophenyl)-1-(6-((2S,3S,4R)-2,3,4,5-tetrahydroxypentyl)-1,6-diazaspiro[3.3]heptan-1-yl)ethan-1-one], the Emax lay within 100 to 130% and the EC50 is 100 to 1000 nM.

As for `O=C(Cc1ccc(OCCCC2CCN(c3ncc(Cl)cn3)CC2)cc1F)N1CCC12CN(C[C@H](O)[C@@H](O)[C@H](O)[C@H](O)CO)C2` [Example 41, 2-(4-(3-(1-(5-chloropyrimidin-2-yl)piperidin-4-yl)propoxy)-2-fluorophenyl)-1-(6-((2S,3R,4R,5R)-2,3,4,5,6-pentahydroxyhexyl)-1,6-diazaspiro[3.3]heptan-1-yl)ethan-1-one], the Emax lay in the range of 100 to 130% and the EC50 was > 10000 nM.

Consider `O=C(Cc1ccc(OCCCC2CCN(c3ncc(Cl)cn3)CC2)cc1F)N1CCC2(CCN(C[C@H](O)[C@H](O)[C@H](O)CO)C2)C1` (stereo partly drawn) [Example 42, 2-(4-(3-(1-(5-chloropyrimidin-2-yl)piperidin-4-yl)propoxy)-2-fluorophenyl)-1-(7-((2S,3S,4R)-2,3,4,5-tetrahydroxypentyl)-2,7-diazaspiro[4.4]nonan-2-yl)ethan-1-one], for which the Emax lay within 100 to 130% and the EC50 was ≤ 100 nM.

Take `O=C(Cc1ccc(OCCCC2CCN(c3ncc(Cl)cn3)CC2)cc1F)N1CCC2(CCN(C[C@H](O)[C@@H](O)[C@H](O)[C@H](O)CO)C2)C1` (stereo partly drawn) [Example 43, 2-(4-(3-(1-(5-chloropyrimidin-2-yl)piperidin-4-yl)propoxy)-2-fluorophenyl)-1-(7-((2S,3R,4R,5R)-2,3,4,5,6-pentahydroxyhexyl)-2,7-diazaspiro[4.4]nonan-2-yl)ethan-1-one]: the maximal effect (Emax) was 100 to 130% and the EC50 was ≤ 100 nM.

On to `O=C(Cc1ccc(OCCCC2CCN(c3ncc(Cl)cn3)CC2)cc1F)N1C[C@H]2CN(C[C@H](O)[C@H](O)[C@H](O)CO)C[C@H]2C1` [Example 44, 2-(4-(3-(1-(5-chloropyrimidin-2-yl)piperidin-4-yl)propoxy)-2-fluorophenyl)-1-((3aR,6aS)-5-((2S,3S,4R)-2,3,4,5-tetrahydroxypentyl)hexahydropyrrolo[3,4-c]pyrrol-2(1H)-yl)ethan-1-one], for which the Emax was 100 to 130% and the EC50 was ≤ 100 nM.

As for `O=C(Cc1ccc(OCCCC2CCN(c3ncc(Cl)cn3)CC2)cc1F)N1C[C@H]2CN(C[C@H](O)[C@@H](O)[C@H](O)[C@H](O)CO)C[C@H]2C1` [Example 45, 2-(4-(3-(1-(5-chloropyrimidin-2-yl)piperidin-4-yl)propoxy)-2-fluorophenyl)-1-((3aR,6aS)-5-((2S,3R,4R,5R)-2,3,4,5,6-pentahydroxyhexyl)hexahydropyrrolo[3,4-c]pyrrol-2(1H)-yl)ethan-1-one], the Emax fell in the range of 100 to 130% and the EC50 was ≤ 100 nM.

`O=C(Cc1ccc(OCCCC2CCN(c3ncc(Cl)cn3)CC2)cc1F)N1C[C@H]2C[C@@H]1CN2C[C@H](O)[C@H](O)[C@H](O)CO` [Example 46, 2-(4-(3-(1-(5-chloropyrimidin-2-yl)piperidin-4-yl)propoxy)-2-fluorophenyl)-1-((1R,4R)-5-((2S,3S,4R)-2,3,4,5-tetrahydroxypentyl)-2,5-diazabicyclo[2.2.1]heptan-2-yl)ethan-1-one]: the Emax is ≥ 130% and the half-maximal effective concentration (EC50) was ≤ 100 nM.

`O=C(Cc1ccc(OCCCC2CCN(c3ncc(Cl)cn3)CC2)cc1F)N1C[C@H]2C[C@@H]1CN2C[C@H](O)[C@@H](O)[C@H](O)[C@H](O)CO` [Example 47, 2-(4-(3-(1-(5-chloropyrimidin-2-yl)piperidin-4-yl)propoxy)-2-fluorophenyl)-1-((1R,4R)-5-((2S,3R,4R,5R)-2,3,4,5,6-pentahydroxyhexyl)-2,5-diazabicyclo[2.2.1]heptan-2-yl)ethan-1-one]: the Emax is 100 to 130% and the EC50 is ≤ 100 nM.

In the case of `O=C(Cc1ccc(OCCCC2CCN(c3ncc(Cl)cn3)CC2)cc1F)N1CC2CC(C1)N2C[C@H](O)[C@H](O)[C@H](O)CO` [Example 48, 2-(4-(3-(1-(5-chloropyrimidin-2-yl)piperidin-4-yl)propoxy)-2-fluorophenyl)-1-(6-((2S,3S,4R)-2,3,4,5-tetrahydroxypentyl)-3,6-diazabicyclo[3.1.1]heptan-3-yl)ethan-1-one], the Emax was ≥ 130% and the EC50 was ≤ 100 nM.

Regarding `O=C(Cc1ccc(OCCCC2CCN(c3ncc(Cl)cn3)CC2)cc1F)N1CC2CC(C1)N2C[C@H](O)[C@@H](O)[C@H](O)[C@H](O)CO` [Example 49, 2-(4-(3-(1-(5-chloropyrimidin-2-yl)piperidin-4-yl)propoxy)-2-fluorophenyl)-1-(6-((2S,3R,4R,5R)-2,3,4,5,6-pentahydroxyhexyl)-3,6-diazabicyclo[3.1.1]heptan-3-yl)ethan-1-one], the Emax was 100 to 130% and the EC50 was ≤ 100 nM.

As to `O=C(Cc1ccc(OCCCC2CCN(c3ncc(Cl)cn3)CC2)cc1F)N1CCCN(C[C@H](O)[C@H](O)[C@H](O)CO)CC1` [Example 50, 2-(4-(3-(1-(5-chloropyrimidin-2-yl)piperidin-4-yl)propoxy)-2-fluorophenyl)-1-(4-((2S,3S,4R)-2,3,4,5-tetrahydroxypentyl)-1,4-diazepan-1-yl)ethan-1-one], the Emax is 100 to 130% and the EC50 was ≤ 100 nM.

`O=C(Cc1ccc(OCCCC2CCN(c3ncc(Cl)cn3)CC2)cc1F)N1CCCN(C[C@H](O)[C@@H](O)[C@H](O)[C@H](O)CO)CC1` [Example 51, 2-(4-(3-(1-(5-chloropyrimidin-2-yl)piperidin-4-yl)propoxy)-2-fluorophenyl)-1-(4-((2S,3R,4R,5R)-2,3,4,5,6-pentahydroxyhexyl)-1,4-diazepan-1-yl)ethan-1-one]: the Emax was 100 to 130% and the EC50 was ≤ 100 nM.
